Test results from US9884047B1, “Method of treating lung cancer” (Macau University of Science and Technology, priority 2017, dated 2018).

How the values were obtained:
Type in all cases: cell-based
[1] = tested on: normal CCD-19Lu lung cells; assay: MTT cytotoxicity assay; conditions: 72 h
Experimental: (§1) Cells were seeded in a 96-well microplate with 3000, 4000 or 5000 cells/well confluence and cultured overnight for cell adhesion. Different concentrations of compound K017-0105 were added to the microplates, and the microplates were incubated for 24, 48 or 72 hours (h). Each concentration of compound K017-0105 was repeated in triplicate. 10 μL 3-(4,5-Dimethylthiazol-2-yl)-2,5-Diphenyltetrazolium Bromide (MTT) (5 mg/mL) solution was added to every well. After incubating for 4 h, 100 μL dimethyl sulfoxide (DMSO) was added to each well. After shaking for 15 minutes, the absorbance of the microplate was measured at 570 nm (absorbance) and 650 nm (reference) by a microplate reader (Tecan, Morrisville, N.C., USA).

p-CRAF, p-Akt and p-ERK = assay: Western blot analysis of KRAS downstream signaling; conditions: compared with untreated control cells
Experimental: H2122, H358 and A549 NSCLC cells were rinsed with phosphate-buffered saline (PBS) and lysed in radioimmunoprecipitation assay (RIPA) lysis buffer (Beyotime, China) supplemented with a protease and phosphatase inhibitor cocktail (Thermo Scientific 78440, USA) once for 30 minutes. Cell lysates were centrifuged at 12,000 g for 10 minutes at 4° C. The supernatant was collected, and the protein concentration was calculated with a Bio-Rad detergent compatible (DC™) protein assay kit (Bio-Rad, Philadelphia, Pa., USA). 30 μg protein lysates were loaded and separated by 10% sodium dodecyl sulfate (SDS)-polyacrylamide gel electrophoresis and transferred to a nitrocellulose (NC) membrane. The membranes were incubated with the primary antibody (1:2000) and then with a fluorescence-conjugated secondary antibody (1:10000). Glyceraldehyde 3-phosphate dehydrogenase (GAPDH) was used as the loading control for normalization. The signal of the membranes was scanned with a LI-COR Odyssey Scanner (Belfast, Me., USA).

H2122 NSCLC cells [2] = assay: Apoptosis analysis (Annexin V/PI flow cytometry); conditions: H2122 cells, 0, 5, 10, 20 and 40 μM for 24 h
Experimental: (§2) H2122, A549 and H358 NSCLC cells were plated in a 6-well plate with 2.0×10^5 cells/well and cultured overnight for attachment. After treatment with compound K017-0105 at 0, 5, 10, 20, 40 μM for 24 h, all cells were harvested by trypsinization and centrifuged at room temperature at 1000 rotations per minute (RPM) for 5 minutes. Cells were re-suspended in 100 μL 1× binding buffer and stained with Annexin V and propidium iodide (PI) staining solution for 15 minutes at room temperature in the dark. Apoptotic cells were quantitatively counted by a BD FACSAria III Flow Cytometer.
(§3) The ability of compound K017-0105 in inducing apoptosis in H2122, H358 and A549 NSCLC cells was examined. H2122, H358 and A549 NSCLC cells were treated with compound K017-0105 at different concentrations (0, 5, 10, 20 and 40 μM) for 24 h. These cells were stained with Annexin V-FITC/PI, and […] was detected by flow cytometry.

A549 NSCLC cells [3] = assay: Apoptosis analysis (Annexin V/PI flow cytometry); conditions: A549 cells, 0, 5, 10, 20 and 40 μM for 24 h
Experimental: as §2, §3

H358 NSCLC cells [4] = assay: Apoptosis analysis (Annexin V/PI flow cytometry); conditions: H358 cells, 0, 5, 10, 20 and 40 μM for 24 h
Experimental: as §2, §3

H2122 NSCLC cells [5] = assay: MTT cytotoxicity assay
Experimental: (§4) H2122, A549 and H358 non-small cell lung cancer (NSCLC) cells were purchased from ATCC and cultivated with Roswell Park Memorial Institute (RPMI) 1640 medium supplemented with 10% fetal bovine serum (Gibco, Big Cabin, Oklahoma, ME, USA), 100 units/mL penicillin and 100 μg/mL streptomycin (Gibco, Big Cabin, Oklahoma, ME, USA). All the cells were cultivated at 37° C. in a humidified atmosphere of 5% CO2.
as §1

A549 NSCLC cells [6] = assay: MTT cytotoxicity assay
Experimental: as §4, §1

H358 NSCLC cells [7] = assay: MTT cytotoxicity assay
Experimental: as §4, §1

GTP-bound KRAS = assay: RAS-binding domain pull down assay; conditions: 400 of compound, 24 hour treatment
Experimental: KRAS activation was determined using the rat sarcoma (RAS) activation assay kit (Millipore, 17-218) in accordance with the manufacturer's guidelines. Cell lysates were prepared using Mg2^+ Lysis/wash buffer (MLB). Samples were incubated with 10 μg RAS assay reagent and incubated for 45 minutes at 4° C. Agarose beads were pelleted by centrifugation and washed 3 times with MLB. Agarose beads were re-suspended in loading buffer. Samples were subjected to western blotting, as previously described, and the blots were probed using anti-K-Ras antibody (sc-30, Santa Cruz Biotechnology (SANTA)).

O=C1Nc2ccccc2/C1=N\Nc1ccc(F)c(Cl)c1 [compound K017-0105]
cytotoxicity [1]: no cytotoxicity | levels of p-CRAF, p-Akt and p-ERK (p-CRAF, p-Akt and p-ERK; A549 NSCLC cells): decreased | levels of p-CRAF, p-Akt and p-ERK (p-CRAF, p-Akt and p-ERK; H358 NSCLC cells): decreased | levels of p-CRAF, p-Akt and p-ERK (p-CRAF, p-Akt and p-ERK; H2122 NSCLC cells): decreased | apoptosis (H2122 NSCLC cells [2]): significantly induced apoptosis | apoptosis (A549 NSCLC cells [3]): significantly induced apoptosis | apoptosis (H358 NSCLC cells [4]): significantly induced apoptosis | IC50 (H2122 NSCLC cells [5]; Homo sapiens, NCI-H2122, 72 h treatment, mean±SEM): 7.19 ± 1.6 µM | cytotoxicity (H2122 NSCLC cells [5]; MTT, 72 h): significant cytotoxicity | IC50 (A549 NSCLC cells [6]; Homo sapiens, 72 h treatment, mean±SEM): 8.28 ± 2.64 µM | cytotoxicity (A549 NSCLC cells [6]; MTT, 72 h): significant cytotoxicity | IC50 (H358 NSCLC cells [7]; Homo sapiens, NCI-H358, 72 h treatment, mean±SEM): 8.18 ± 1.29 µM | cytotoxicity (H358 NSCLC cells [7]; MTT, 72 h): significant cytotoxicity | level of GTP-bound KRAS (GTP-bound KRAS; A549 NSCLC cells): inhibited | level of GTP-bound KRAS (GTP-bound KRAS; H358 NSCLC cells): inhibited | level of GTP-bound KRAS (GTP-bound KRAS; H2122 NSCLC cells): inhibited
